Reference: article PMC11967380, “Rapid Determination of Xa Inhibitor Activity in Blood Using a Microfluidic Device that Measures Platelet Deposition and Fibrin Generation Under Flow” (TH Open: Companion Journal to Thrombosis and Haemostasis, 2025)

Legend:
[1] = tested on: whole blood clotting on collagen/tissue factor (platelet and fibrin deposition); assay: DOAC reversal and detection in blood of DOAC-treated patients (microfluidic platelet and fibrin signal); format: cell-based, human; conditions: 5,000 nM matching DOAC added ex vivo to patient blood, all subjects
Description: Platelets were labeled in whole blood by the addition of an AlexaFluor 488-conjugated anti-CD61 molecule (Bio-Rad Laboratories) and fibrin was quantified via the addition of AlexaFluor 594-conjugated fibrinogen (Life Technologies Co.), as previously described. Chips were mounted on a Lumascope 620 (Etaluma Inc.) LED epifluorescence microscope with a 2.5× objective (Meiji Techno). Each chip was primed with 1% bovine serum albumin (BSA) in HEPES-buffered saline (HBS) to passivate the surfaces ( Fig. 1A ). A volume of 60 μL of whole blood was added to each inlet well. A vacuum pressure of 140 mbar was applied to the outlet to yield an initial wall shear rate of 200 s ^−1 . Fluorescence images were captured at 10 s intervals for green and red LED channels to obtain kinetic data for platelet and fibrin deposition on the collagen/TF zone for up to 25 min. Images were analyzed with ImageJ to calculate the average pixel brightness of an inner 200 μm by 200 μm region within each clot.
For DOAC-treated patients on either rivaroxaban or apixaban, blood samples were obtained and analyzed, using the microfluidic device to measure platelets and fibrin deposition under flow as described above. […] For subjects 1 through 19, fluorescence data were collected for 15 minutes. […]
Statistical significance was calculated for paired t -tests, using GraphPad Prism 9 (GraphPad Software). […]

[2] = set-up: method as in PMID 31089975, PMID 23999929; conditions: cited from earlier work

For COc1ccc(-n2nc(C(N)=O)c3c2C(=O)N(c2ccc(N4CCCCC4=O)cc2)CC3)cc1 [apixaban], the fibrin signal [1] is given as “nearly fully suppressed” and the plasma protein binding [2] is given as “high”.

For O=C(NC[C@H]1CN(c2ccc(N3CCOCC3=O)cc2)C(=O)O1)c1ccc(Cl)s1 [rivaroxaban], the fibrin signal [1] is listed as “nearly fully suppressed” and the plasma protein binding [2] is listed as “high”.
